# Experimental data taken from publication PMC5063900, “A phase 1 study of the safety, tolerability, pharmacokinetics, and pharmacodynamics of TAK-063, a selective PDE10A inhibitor” (Psychopharmacology, 2016).
# Assays:
# [1] = CNS Vital Signs (CNSVS) computerized cognition battery; type: in vivo, human; details: for Composite memory domain score, Difference (TAK-063 LS mean - placebo LS mean, change from baseline) / Executive functioning domain score, Difference (TAK-063 LS mean - placebo LS mean, change from baseline) / Processing speed domain score, Difference (TAK-063 LS mean - placebo LS mean, change from baseline) / Psychomotor speed domain score, Difference (TAK-063 LS mean - placebo LS mean, change from baseline) / Reaction time domain score, Difference (TAK-063 LS mean - placebo LS mean, change from baseline) / Reasoning domain score, Difference (TAK-063 LS mean - placebo LS mean, change from baseline) / Sustained attention domain score, Difference (TAK-063 LS mean - placebo LS mean, change from baseline) / Verbal memory domain score, Difference (TAK-063 LS mean - placebo LS mean, change from baseline) / Visual memory domain score, Difference (TAK-063 LS mean - placebo LS mean, change from baseline) / Working memory domain score, Difference (TAK-063 LS mean - placebo LS mean, change from baseline) / Cognitive flexibility domain score, Difference (TAK-063 LS mean - placebo LS mean, change from baseline): 6 h postdose, fasting
# Experimental: Cognitive flexibility, attention, executive function, memory, reasoning, motor control, psychomotor speed, reaction time, and information processing speed were assessed predose and at 2 and 6 h following TAK-063 treatment using the CNSVS computerized cognition battery. The CNSVS cognition battery is a well-validated, sensitive measure and included the following tests: verbal and visual memory (VBM and VIM) tests, finger-tapping test, symbol digit coding test, Stroop test, shifting attention test, the nonverbal reasoning test, and the 4-part continuous performance test (Gualtieri and Johnson [2006]). Standardized domain scores for cognitive flexibility, composite memory, executive functioning, processing speed, psychomotor speed, reaction time, reasoning, sustained attention, verbal memory, visual memory, and working memory were reported. In all domains, a decrease in the standardized domain score is indicative of impairment.
# All statistical analyses were generated using SAS Version 9.2 (SAS, Cary, NC, USA). The PK parameters were derived using non-compartmental methods with WinNonlin Enterprise Version 6.3 (Pharsight Corp., Mountain View, CA, USA). Frequency or descriptive statistics were used for summary of data. Where indicated, percent coefficient of variation was included in the summary of continuous data. All statistical tests were 2-tailed at α = 0.05 level for significance unless otherwise stated. A power model was used to evaluate dose proportionality by race for fasted subjects; in the event of no observed race effect, dose proportionality was assessed for all subjects. To evaluate the food effect, a paired t test was performed on T max and natural log-transformed C max, and AUCs. An ANCOVA model with baseline scores and race as covariates was used to assess the effects of TAK-063 on CNSVS domain scores.
# [2] = stated in discussion without method or reference; cited from earlier work
smiles,measurement,setting,value
COc1cn(-c2ccc(-n3cccn3)cc2F)nc(-c2ccnn2-c2ccccc2)c1=O [TAK-063],"Composite memory domain score, Difference (TAK-063 LS mean - placebo LS mean, change from baseline)",[1]; 3 mg,-1.4
same,"Executive functioning domain score, Difference (TAK-063 LS mean - placebo LS mean, change from baseline)",[1]; 3 mg,2.9
same,"Processing speed domain score, Difference (TAK-063 LS mean - placebo LS mean, change from baseline)",[1]; 3 mg,2.5
same,"Psychomotor speed domain score, Difference (TAK-063 LS mean - placebo LS mean, change from baseline)",[1]; 3 mg,-1.8
same,"Reaction time domain score, Difference (TAK-063 LS mean - placebo LS mean, change from baseline)",[1]; 3 mg,1.5
same,"Reasoning domain score, Difference (TAK-063 LS mean - placebo LS mean, change from baseline)",[1]; 3 mg,6.9
same,"Sustained attention domain score, Difference (TAK-063 LS mean - placebo LS mean, change from baseline)",[1]; 3 mg,15.0
same,"Verbal memory domain score, Difference (TAK-063 LS mean - placebo LS mean, change from baseline)",[1]; 3 mg,-4.8
same,"Visual memory domain score, Difference (TAK-063 LS mean - placebo LS mean, change from baseline)",[1]; 3 mg,4.5
same,"Working memory domain score, Difference (TAK-063 LS mean - placebo LS mean, change from baseline)",[1]; 3 mg,9.9
same,"Cognitive flexibility domain score, Difference (TAK-063 LS mean - placebo LS mean, change from baseline)",[1]; 10 mg,-10.0
same,"Composite memory domain score, Difference (TAK-063 LS mean - placebo LS mean, change from baseline)",[1]; 10 mg,-1.9
same,"Executive functioning domain score, Difference (TAK-063 LS mean - placebo LS mean, change from baseline)",[1]; 10 mg,-10.0
same,"Processing speed domain score, Difference (TAK-063 LS mean - placebo LS mean, change from baseline)",[1]; 10 mg,0.2
same,"Psychomotor speed domain score, Difference (TAK-063 LS mean - placebo LS mean, change from baseline)",[1]; 10 mg,-9.6
same,"Reaction time domain score, Difference (TAK-063 LS mean - placebo LS mean, change from baseline)",[1]; 10 mg,-5.6
same,"Reasoning domain score, Difference (TAK-063 LS mean - placebo LS mean, change from baseline)",[1]; 10 mg,2.2
same,"Sustained attention domain score, Difference (TAK-063 LS mean - placebo LS mean, change from baseline)",[1]; 10 mg,3.6
same,"Verbal memory domain score, Difference (TAK-063 LS mean - placebo LS mean, change from baseline)",[1]; 10 mg,2.9
same,"Visual memory domain score, Difference (TAK-063 LS mean - placebo LS mean, change from baseline)",[1]; 10 mg,-4.4
same,"Working memory domain score, Difference (TAK-063 LS mean - placebo LS mean, change from baseline)",[1]; 10 mg,2.3
same,"Cognitive flexibility domain score, Difference (TAK-063 LS mean - placebo LS mean, change from baseline)",[1]; 30 mg,-1.9
same,"Composite memory domain score, Difference (TAK-063 LS mean - placebo LS mean, change from baseline)",[1]; 30 mg,7.5
same,"Executive functioning domain score, Difference (TAK-063 LS mean - placebo LS mean, change from baseline)",[1]; 30 mg,-1.2
same,"Processing speed domain score, Difference (TAK-063 LS mean - placebo LS mean, change from baseline)",[1]; 30 mg,2.2
same,"Psychomotor speed domain score, Difference (TAK-063 LS mean - placebo LS mean, change from baseline)",[1]; 30 mg,-3.7
same,"Reaction time domain score, Difference (TAK-063 LS mean - placebo LS mean, change from baseline)",[1]; 30 mg,-2.8
same,"Reasoning domain score, Difference (TAK-063 LS mean - placebo LS mean, change from baseline)",[1]; 30 mg,-0.6
same,"Sustained attention domain score, Difference (TAK-063 LS mean - placebo LS mean, change from baseline)",[1]; 30 mg,2.5
same,"Verbal memory domain score, Difference (TAK-063 LS mean - placebo LS mean, change from baseline)",[1]; 30 mg,3.8
same,"Visual memory domain score, Difference (TAK-063 LS mean - placebo LS mean, change from baseline)",[1]; 30 mg,8.3
same,"Working memory domain score, Difference (TAK-063 LS mean - placebo LS mean, change from baseline)",[1]; 30 mg,-2.2
same,"Cognitive flexibility domain score, Difference (TAK-063 LS mean - placebo LS mean, change from baseline)",[1]; 100 mg,-5.6
same,"Composite memory domain score, Difference (TAK-063 LS mean - placebo LS mean, change from baseline)",[1]; 100 mg,-13.5
same,"Executive functioning domain score, Difference (TAK-063 LS mean - placebo LS mean, change from baseline)",[1]; 100 mg,-2.2
same,"Processing speed domain score, Difference (TAK-063 LS mean - placebo LS mean, change from baseline)",[1]; 100 mg,-4.7
same,"Psychomotor speed domain score, Difference (TAK-063 LS mean - placebo LS mean, change from baseline)",[1]; 100 mg,-11.4
same,"Reaction time domain score, Difference (TAK-063 LS mean - placebo LS mean, change from baseline)",[1]; 100 mg,-3.4
same,"Reasoning domain score, Difference (TAK-063 LS mean - placebo LS mean, change from baseline)",[1]; 100 mg,2.0
same,"Sustained attention domain score, Difference (TAK-063 LS mean - placebo LS mean, change from baseline)",[1]; 100 mg,-0.1
same,"Verbal memory domain score, Difference (TAK-063 LS mean - placebo LS mean, change from baseline)",[1]; 100 mg,-12.0
same,"Visual memory domain score, Difference (TAK-063 LS mean - placebo LS mean, change from baseline)",[1]; 100 mg,-8.3
same,"Working memory domain score, Difference (TAK-063 LS mean - placebo LS mean, change from baseline)",[1]; 100 mg,-6.2
same,"Cognitive flexibility domain score, Difference (TAK-063 LS mean - placebo LS mean, change from baseline)",[1]; 300 mg,-28.4
same,"Composite memory domain score, Difference (TAK-063 LS mean - placebo LS mean, change from baseline)",[1]; 300 mg,-19.6
same,"Executive functioning domain score, Difference (TAK-063 LS mean - placebo LS mean, change from baseline)",[1]; 300 mg,-26.4
same,"Processing speed domain score, Difference (TAK-063 LS mean - placebo LS mean, change from baseline)",[1]; 300 mg,-1.5
same,"Psychomotor speed domain score, Difference (TAK-063 LS mean - placebo LS mean, change from baseline)",[1]; 300 mg,-11.1
same,"Reaction time domain score, Difference (TAK-063 LS mean - placebo LS mean, change from baseline)",[1]; 300 mg,-4.1
same,"Reasoning domain score, Difference (TAK-063 LS mean - placebo LS mean, change from baseline)",[1]; 300 mg,-2.0
same,"Sustained attention domain score, Difference (TAK-063 LS mean - placebo LS mean, change from baseline)",[1]; 300 mg,-8.1
same,"Verbal memory domain score, Difference (TAK-063 LS mean - placebo LS mean, change from baseline)",[1]; 300 mg,-17.3
same,"Visual memory domain score, Difference (TAK-063 LS mean - placebo LS mean, change from baseline)",[1]; 300 mg,-14.0
same,"Working memory domain score, Difference (TAK-063 LS mean - placebo LS mean, change from baseline)",[1]; 300 mg,-1.4
same,"Cognitive flexibility domain score, Difference (TAK-063 LS mean - placebo LS mean, change from baseline)",[1]; 1000 mg,-15.6
same,"Composite memory domain score, Difference (TAK-063 LS mean - placebo LS mean, change from baseline)",[1]; 1000 mg,-8.6
same,"Executive functioning domain score, Difference (TAK-063 LS mean - placebo LS mean, change from baseline)",[1]; 1000 mg,-14.1
same,"Processing speed domain score, Difference (TAK-063 LS mean - placebo LS mean, change from baseline)",[1]; 1000 mg,-19.7
same,"Psychomotor speed domain score, Difference (TAK-063 LS mean - placebo LS mean, change from baseline)",[1]; 1000 mg,-22.7
same,"Reaction time domain score, Difference (TAK-063 LS mean - placebo LS mean, change from baseline)",[1]; 1000 mg,-16.5
same,"Reasoning domain score, Difference (TAK-063 LS mean - placebo LS mean, change from baseline)",[1]; 1000 mg,-0.1
same,"Sustained attention domain score, Difference (TAK-063 LS mean - placebo LS mean, change from baseline)",[1]; 1000 mg,0.7
same,"Verbal memory domain score, Difference (TAK-063 LS mean - placebo LS mean, change from baseline)",[1]; 1000 mg,-5.8
same,"Visual memory domain score, Difference (TAK-063 LS mean - placebo LS mean, change from baseline)",[1]; 1000 mg,-6.0
same,"Working memory domain score, Difference (TAK-063 LS mean - placebo LS mean, change from baseline)",[1]; 1000 mg,-2.7
same,"Single dose causing impairments in cognitive flexibility, executive functioning, processing and psychomotor speed, and visual memory","[1]; single dose, CNSVS",≥ 100 mg
same,Aqueous solubility,[2],low
